Values quoted from earlier work as cited in US20070281996A1, “Creatine prodrugs, compositions and uses thereof” (XenoPort, Inc., priority 2006, published 2007).

Assays:
[1] = healthy volunteers, oral creatine administration (Dechent et al.)
[2] = following oral creatine supplementation

## CN(CC(=O)O)C(=N)N [creatine, Creatine]
[1]
  increase of cerebral creatine phosphate: about 10%
[2]
  duration of increase in tissue creatine phosphate levels: > 14 days
